Results as given in patent US4430319A, “Radioactive iodine labeled phenolic amines” (State University of New York, priority 1982, dated 1984).

Experiment: Biodistribution of I-123 Compound in rats (i.v. injection, excised organs gamma counted)
Assay type: in vivo, Sprague-Dawley male rats
Settings: for Blood/Brain: concentration ratio calculated from % dose/gram of wet tissue; for Biodistribution, Brain / Biodistribution, Heart / Biodistribution, Kidneys / Biodistribution, Liver / Biodistribution, Lungs / Biodistribution, Skin / Biodistribution, Spleen / Biodistribution, Stomach / Biodistribution, Thyroids / Biodistribution, Blood / Biodistribution, Muscle: average of 3; for Biodistribution, Blood: blood taken as 7% of body weight; for Biodistribution, Muscle: muscle taken as 40% of body weight
Protocol: Studies of distribution of the optimum radiopharmaceutical compound of the present invention in rats, the results of which are reflected in Table 1, were conducted according to standard practice in the pharmacological sciences, and therefore need not be described here in great detail. Nevertheless, for the sake of complete understanding of the present invention, some experimental details of these studies are briefly described below: Sprague-Dawley male rats (220-300 g) were injected intravenously (femoral vein) with a 0.2 ml solution (0.5-20. micro Ci) under light ether anaesthesia. At different time periods after the injection, the animals were sacrificed and organs of interest were excised and counted in a well counter. Percent dose was estimated by comparison of tissue counts to suitably diluted aliquots of the injected material. Total activities in blood and muscle were calculated by assuming that they are 7% and 40% of the body weight respectively. Sprague-Dawley male rats (220-300 g) under light ether anesthesia were injected intravenously with 0.2 ml of a saline solution containing 0.5-20 uCi of test compound (specific activity 0.5-1.0 uCi/mg). At different time periods after injection the animals were put under ether anesthesia and killed by cardiactomy. The organs of interest were excised, weighed and counted in a Beckman automatic gamma counter (Model 4000). The % dose/organ was determined by comparison of tissue radioactivity levels to suitably diluted aliquots of the injected dose. The approximate % dose/g of wet tissue or organ can be calculated by dividing the % dose/organ by the mean organ weight (mean weights: heart 0.85 g, brain 1.65 g, blood 18 g, liver 9 g, kidneys 1.9 g, lungs 1.6 g).

[1] = 2 min after i.v. injection, rats
[2] = 1 hr after i.v. injection, rats

Cc1cc([123I])cc(CN(C)CCCN(C)C)c1O [I-123 Compound, N,N,N-trimethyl-N'[2-hydroxy-3-methyl-5-iodobenzyl]-1,3-propanediamines]
Blood/Brain (2 min after i.v. injection): 14.84
Biodistribution, Brain [1]: 2.74 % dose/organ
Biodistribution, Heart [1]: 2.71 % dose/organ
Biodistribution, Kidneys [1]: 8.06 % dose/organ
Biodistribution, Liver [1]: 5.52 % dose/organ
Biodistribution, Lungs [1]: 36.53 % dose/organ
Biodistribution, Skin [1]: 6.73 % dose/organ
Biodistribution, Spleen [1]: 0.72 % dose/organ
Biodistribution, Stomach [1]: 0.80 % dose/organ
Biodistribution, Thyroids [1]: 0.59 % dose/organ
Biodistribution, Blood [1]: 2.02 % dose/organ
Biodistribution, Muscle [1]: 5.66 % dose/organ
Blood/Brain (1 hr after i.v. injection): 32.18
Biodistribution, Brain [2]: 2.50 % dose/organ
Biodistribution, Heart [2]: 0.29 % dose/organ
Biodistribution, Kidneys [2]: 2.87 % dose/organ
Biodistribution, Liver [2]: 4.68 % dose/organ
Biodistribution, Lungs [2]: 18.25 % dose/organ
Biodistribution, Skin [2]: 9.21 % dose/organ
Biodistribution, Spleen [2]: 1.58 % dose/organ
Biodistribution, Stomach [2]: 0.93 % dose/organ
Biodistribution, Thyroids [2]: 0.06 % dose/organ
Biodistribution, Blood [2]: 0.85 % dose/organ
Biodistribution, Muscle [2]: 12.77 % dose/organ
initial uptake in the brain, lung and liver (rats, i.v., Table 1, in words): high initial uptake
persistence of uptake in the brain, lung and liver (rats, i.v., Table 1, in words): persists sufficiently to allow imaging
